From patent US11690899B2, “Combination of bactericidal agent with a lysosomotropic alkalinising agent for the treatment of a bacterial infection” (priority 2015, dated 2023)

Assays:
S. aureus Cowan [1] = assay: In vivo infection model: mice infected intraperitoneally with S. aureus Cowan; design: species or system Staphylococcus aureus
Experimental: Mice were infected with S. aureus Cowan intraperitoneally. Six hours and two days post-infection mice were treated with 1 mg flucloxacillin and 0.2 mg chloroquine (+CQ). Mice treated with flucloxacillin only served as control (−CQ). †, sacrifice (a). Colony phenotypes of bacteria recovered from target tissues (b), peripheral blood and peritoneal lavage (c) were determined and enumerated. Each point represents one mouse. Horizontal bars indicate mean±SEM, n=11 mice per group. PL, peritoneal lavage. Two-way ANOVA found the factor treatment to be significant (p-value<0.01).
Mice infected with S. aureus Cowan were treated with flucloxacillin alone (control), or in combination with chloroquine (FIG. 5a).

S. aureus Cowan [2] = assay: S. aureus Cowan-infected A549 cells treated with flucloxacillin and lysosomotropic alkalinizing agents (intracellular persisters, SCVs); assay type: cell-based, Staphylococcus aureus; settings: for effect on phagolysosomal pH: infected host cells
Experimental: Reduction of S. aureus persisters through phagolysosome alkalinization. S. aureus Cowan-infected A549 cells were treated with flucloxacillin alone (control) or supplemented with lysosomotropic alkalinizing agents (chloroquine (a), bafilomycin A1 (b) and ammonium chloride (c)). Colony phenotypes of viable intracellular persisting bacteria were determined and enumerated at indicated time points. Data were pooled from three independent experiments done in triplicates, mean±SEM. Two-way ANOVA found the factors time and treatment to be significant (p-value<0.01).
MSSA strain Cowan is highly invasive, but not cytotoxic which allowed maintaining this strain intracellularly over several days in the lung epithelial cell line A549. Extracellular bacteria were killed by adding a high dose of flucloxacillin to the infected host cells. Flucloxacillin is typically used to treat S. aureus endocarditis in patients. Absence of extracellular bacteria was confirmed by sterility of culture supernatants. Host cells were lysed to release intracellular bacteria and colony counts, as well as colony phenotypes, were determined at various time points. […] The number of viable intracellular persisting bacteria decreased during the course of infection while the frequency of SCVs increased and reached 5.6% after seven days.
No differences in total colony counts between control and treated cells were observed. […] No significant differences in host cell viability were observed after treatment with the alkalinizing agents.
Growth resumption of S. aureus persisters through treatment of host cells with chloroquine was assessed. […] We observed no dividing bacteria in infected host cells without chloroquine treatment.

Structure (SMILES) | frequency of SCVs in various organs and compartments (S. aureus Cowan [1]; 1 mg flucloxacillin and 0.2 mg chloroquine at six hours and two days post-infection vs flucloxacillin only) | absolute bacterial numbers (S. aureus Cowan [1]; flucloxacillin with vs without chloroquine) | effect on phagolysosomal pH (S. aureus Cowan [2]) | bacterial cell division (transmission electron microscopy) (S. aureus Cowan [2]; three days post-infection, vs host cells without chloroquine)
CCN(CC)CCCC(C)Nc1ccnc2cc(Cl)ccc12 (stereo not drawn) [Chloroquine, chloroquine] | significantly reduced | comparable | neutralized the phagolysosomal pH | facilitated bacterial cell division
Cl.N [ammonium chloride] |  |  | neutralized the phagolysosomal pH | 
CO/C1=C\C(C)=C\[C@@H](C)[C@@H](O)[C@@H](C)C/C(C)=C/C=C/[C@H](OC)[C@@H]([C@@H](C)[C@@H](O)[C@H](C)[C@@]2(O)C[C@@H](O)[C@H](C)[C@@H](C(C)C)O2)OC1=O [bafilomycin A1] |  |  | neutralized the phagolysosomal pH | 
